Experimental data taken from article PMC7801313, “Effect of lurbinectedin on the QTc interval in patients with advanced solid tumors: an exposure–response analysis” (Cancer Chemotherapy and Pharmacology, 2020).
“And” between values parts separate entries of the source, which are not always exact repeats. Identical values can stand only once. Like-named read-outs stand apart in the source and are kept apart here.

How the values were obtained:
[1] = tested on: patients with advanced solid tumors; assay: cardiac adverse events in the QT evaluation study; type: in vivo, human
Procedure: Cardiac adverse events (AEs) observed in the period of this QT evaluation study were evaluated and graded according to the National Cancer Institute Common Terminology Criteria for Adverse Events (NCI-CTCAE), v.4 and coded using the Medical Dictionary for Regulatory Activities (MedDRA) v.16.0. Laboratory results of particular relevance (i.e., changes in albumin, calcium, potassium, or magnesium) were graded according to the NCI-CTCAE v.4.

[2] = cited from earlier work
patients = tested on: patients; design: method as in PMID 24563480; details: cited from earlier work
[3] = tested on: patients with advanced solid tumors; assay: QT evaluation study, by time point ECG analysis; type: in vivo, human
Procedure: This was a QT evaluation study (EudraCT No. 2015-000206-18; ClinicalTrials.gov: NCT02451007) performed at a subset of sites participating in a multicenter, open-label, exploratory, phase II basket clinical trial (EudraCT No: 2014-003773-42; ClinicaTrials.gov: NCT02454972) conducted in patients with selected advanced solid tumors. The schedule used in this QT evaluation study was that evaluated in the basket trial: lurbinectedin 3.2 mg/m^2 given as a 1-h i.v. infusion q3wk.
A screening ECG was collected between day -10 and day -2 before the first lurbinectedin infusion (day 1 of cycle 1) and transmitted to the central ECG laboratory to confirm the patient’s eligibility.
On day 1 of cycle 1, two baseline triplicate ECGs (three 10-s digital ECGs in close succession) were collected: one before administration of prophylactic medication or pre-dose 1, and the other after antiemetic prophylactic medication (palonosetron 0.25 mg i.v.) and before the start of the lurbinectedin infusion or pre-dose 2 (also on cycle 2).
In cycle 1 and cycle 2, the following triplicate ECGs were collected 5–10 min before their time-matched PK time points: 5 min before end of the lurbinectedin infusion (EOI), 30 min, 1, 3, 24, 72 (only on cycle 1), and 168 h after EOI.
A 12-lead automated digital ECG recorder [Mortara Instrument (Milwaukee, WI, USA) ELI-150 ECG 12-lead digital recorder] was provided by a third-party central ECG laboratory (eResearchTechnology, Inc., Philadelphia, PA, USA). Analysis and reporting of ECG data were performed by a limited number of skilled readers who were blinded to treatment time point. ECG review of a particular patient was performed by a single reader. Interval duration measurements were collected using computer-assisted caliper placements on three consecutive beats. A cardiologist then verified the interval durations and performed the morphology analysis, noting any T-U wave complex compatible with an effect on cardiac repolarization. The ECG analysis was conducted in Lead II or in Lead V5 if Lead II was not analyzable. If Lead V5 was not analyzable, then Lead V2 was used, and followed by the most appropriate lead if necessary. The mean of triplicate ECG measures at each time point for each patient was used for analyses.
Fridericia’s formula [6] is currently considered the most accurate method for correcting the effect of HR on QT interval [7], and was used as the main method for HR correction for QT (QTcF). Nevertheless, graphical inspection of QTcF and QT corrected by Bazett’s formula (QTcB) versus RR interval plots and statistical comparison of resulting squared linear regression slopes (R^2) was performed.
The primary endpoint was the change in QTc corrected by the Fridericia’s formula (ΔQTcF) between each scheduled post-baseline ECG time point and baseline at cycle 1. A patient was considered evaluable for the primary endpoint if he/she had baseline and one or more post-baseline ECG assessments.
Secondary endpoints were the ΔQTcF/lurbinectedin plasma concentration relationship, and change in other ECG parameters (i.e., HR, QRS, and PR).
The primary comparison was ΔQTcF at each ECG time point. A non-inferiority criterion of 20 ms was used to establish the absence of post-baseline QTc prolongation when compared to baseline. An analysis of variance model with mixed effects was fitted, with ΔQTc data as the dependent variable and ECG time point as the fixed effects, and patient as random effect.
Using the estimated least square means (LSM) and intra-patient standard deviation (Std) obtained from this model, a two-sided 90% confidence interval (CI) was calculated for each LSM ΔQTc. Non-inferiority was to be concluded if the upper bound (UB) of the one-sided 95% CI fell below 20 ms at each ECG time point.

cynomolgus monkeys = tested on: cynomolgus monkeys; design: method as in data on file; details: single i.v. bolus at maximum tolerated dose, ref data on file; cited from earlier work
[4] = Cycle 1 Day 1, 30 min after end of infusion
[5] = Cycle 1 Day 1, 1 h after end of infusion
[6] = Cycle 1 Day 1, 3 h after end of infusion
[7] = Cycle 1 Day 2, 24 h after end of infusion
[8] = Cycle 1 Day 4, 72 h after end of infusion
[9] = Cycle 1 Day 8, 168 h after end of infusion
[10] = Cycle 2 Day 1, 5 min before end of infusion
[11] = Cycle 2 Day 1, 5 min before start of infusion
[12] = Cycle 2 Day 1, 30 min after end of infusion
[13] = Cycle 2 Day 1, 1 h after end of infusion
[14] = Cycle 2 Day 8, 168 h after end of infusion
[15] = all time points other than 3 h after end of cycle 2 infusion

SMILES: COc1ccc2[nH]c3c(c2c1)CCN[C@]31CS[C@@H]2c3c(OC(C)=O)c(C)c4c(c3[C@H](COC1=O)N1[C@@H]2[C@H]2c3c(cc(C)c(OC)c3O)C[C@@H]([C@@H]1O)N2C)OCO4 [lurbinectedin, Lurbinectedin]
- cardiac safety findings ([1]; QT evaluation study period): No relevant cardiac safety findings
- adverse events suggestive of proarrhythmic potential ([1]; in vivo): No adverse events suggestive of proarrythmic potential
- population estimate for total plasma clearance ([2]; 1-h i.v. infusion, cancer patients): 11.2 L/h
- extraction ratio [2]: 0.19
- inter-individual variability of all PK parameters [2]: 20.9 to 51.2%
- population estimate of apparent volume at steady state [2]: 438 L and 438.4 L
- reduction of clearance ([2]; co-administration of CYP3A inhibitors): 30%
- blood CL ([2]; corresponding to plasma clearance): ~ 17 L/h
- reduction of clearance ([2]; high C-reactive protein): 20%
- reduction of clearance ([2]; high α-1-acid glycoprotein): 28%
- reduction of clearance ([2]; low albumin): 20%
- most common limiting toxicity (patients): myelosuppression, particularly neutropenia
- effect on cardiac repolarization ([3]; 3.2 mg/m^2 1-h i.v. q3wk): not associated with a clinically relevant effect on cardiac repolarization
- values above reference limits QTcF > 480 ms and ΔQTcF > 60 ms ([3]; 39 evaluable patients): No single value was above the reference limit values of concern
- ΔQTcF, mean (Stdv) ([3]; Cycle 1, 0.92 h after start of infusion): 3.33 (8.46) ms
- ΔQTcF, mean (Stdv) ([3]; Cycle 1, 1.5 h after start of infusion): 1.76 (8.25) ms
- ΔQTcF, mean (Stdv) ([3]; Cycle 1, 2 h after start of infusion): 1.84 (10.88) ms
- highest mean change from baseline in HR (± Std) ([3]; Cycle 1, 3 h after end of infusion): 16.7 (± 11.0) bpm and 16.7 bpm
- ΔQTcF, mean (Stdv) ([3]; Cycle 1, 4 h after start of infusion): 1.33 (10.39) ms
- ΔQTcF UB90%CI ([3]; Cycle 1 Day 1, 5 min before end of infusion): 5.51 ms
- ΔQTcF LSmean ([3]; Cycle 1 Day 1, 5 min before end of infusion, 3.2 mg/m^2 1-h i.v.): 3.32 ms
- ΔQTcF LSmean [3, 4]: 1.76 ms
- ΔQTcF UB90%CI [3, 4]: 3.93 ms
- ΔQTcF LSmean [3, 5]: 1.84 ms
- ΔQTcF UB90%CI [3, 5]: 4.69 ms
- ΔQTcF LSmean [3, 6]: 1.32 ms
- ΔQTcF UB90%CI [3, 6]: 4.05 ms
- ΔQTcF LSmean [3, 7]: -8.24 ms
- ΔQTcF UB90%CI [3, 7]: -5.26 ms
- ΔQTcF LSmean [3, 8]: -12.38 ms
- ΔQTcF UB90%CI [3, 8]: -9.39 ms
- ΔQTcF LSmean [3, 9]: -5.2 ms
- ΔQTcF UB90%CI [3, 9]: -2.41 ms
- ΔQTcF, mean (Stdv) ([3]; Cycle 2, 0.92 h after start of infusion): 1.54 ms and 1.54 (12.36) ms
- ΔQTcF, mean (Stdv) ([3]; Cycle 2, 1.5 h after start of infusion): 1.99 (12.06) ms
- ΔQTcF, mean (Stdv) ([3]; Cycle 2, 2 h after start of infusion): 1.92 (13.65) ms
- ΔQTcF, mean (Stdv) ([3]; Cycle 2, 4 h after start of infusion (largest mean)): 4.69 ms and 4.69 (15.28) ms
- ΔQTcF LSmean [3, 10]: 2.25 ms
- ΔQTcF UB90%CI [3, 10]: 5.68 ms
- ΔQTcF LSmean [3, 11]: -0.46 ms
- ΔQTcF UB90%CI [3, 11]: 2.35 ms
- ΔQTcF LSmean [3, 12]: 2.32 ms
- ΔQTcF UB90%CI [3, 12]: 5.66 ms
- ΔQTcF LSmean [3, 13]: 2.73 ms
- ΔQTcF UB90%CI [3, 13]: 6.54 ms
- ΔQTcF UB90%CI ([3]; Cycle 2 Day 1, 3 h after end of infusion (largest UB)): 9.6 ms and 9.60 ms
- ΔQTcF LSmean ([3]; Cycle 2 Day 1, 3 h after end of infusion (maximum)): 5.39 ms
- ΔQTcF LSmean [3, 14]: -4.22 ms
- ΔQTcF UB90%CI [3, 14]: -1.08 ms
- variation between lowest and largest mean change from baseline of PR interval ([3]; all time points and cycles): 7.8 ms
- variation between lowest and largest mean change from baseline of QRS duration ([3]; all time points and cycles): 2.5 ms
- LSM ΔQTcF at other time points [3, 15]: ≤ 3.3 ms
- UB of the 90% CI of ΔQTcF at other time points [3, 15]: < 6.6 ms
- Umax (time when the largest mean ΔQTcF is reached) ([3]; cycle 1): 0.92 h
- patients with ΔHR > 25% ([3]; cycle 1): 44%
- difference between Umax and Tmax ([3]; cycle 2): 3.08 h
- patients with ΔHR > 25% ([3]; cycle 2): 49%
- highest mean change from baseline in HR (± Std) ([3]; cycle 2, 3 h after end of infusion): 17.5 (± 11.7) bpm and 17.5 bpm
- effects on atrioventricular conduction or depolarization (mean changes in PR and QRS intervals) ([3]; in vivo): No significant effects
- cardiovascular changes (cynomolgus monkeys): mild decreases in blood pressure and increased heart rate
- effects on lead II ECG variables (PR, QT, QTcF, QTcV, QRS), ECG gross morphology, cardiac rhythm (cynomolgus monkeys): No effects were observed
